Assay results published in ChEMBL document CHEMBL1201862, “PubChem BioAssay data set” (2004).
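1) Cells in 96-well plates. 2) Compound, 48 h, 5 concentrations. 3) Linear interpolation between surrounding doses. 4) Unreached endpoint = highest concentration. GI50 = concentration required for 50% inhibition of growth.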 The source made the active and inactive calls. Rule as the data show it: active = GI50 up to about 1.1 µM and inactive = higher.

How the values were obtained:
Test in all cases: growth of human tumour cells (NCI), 48 h
A498 = system: A498
UACC-257 = system: UACC-257
RXF 393 = system: RXF 393
Malme-3M = system: Malme-3M
K562 = system: K562
EKVX = system: EKVX
UO-31 = system: UO-31
HCT-116 = system: HCT-116
NCI-H460 = system: NCI-H460
NCI-H23 = system: NCI-H23
NCI-H522 = system: NCI-H522
ACHN = system: ACHN
SK-MEL-28 = system: SK-MEL-28
SN12C = system: SN12C
SNB-19 = system: SNB-19
OVCAR-5 = system: OVCAR-5
MDA-MB-435 = system: MDA-MB-435
DU-145 = system: DU-145
SF-539 = system: SF-539
HL-60 = system: HL-60

Measured: GI50

CC1=C2C(=O)OCC23C=COC3(C)O1 (stereo not drawn)
inactive: A498 43.3 µM | UACC-257 32.7 µM | RXF 393 31.4 µM | Malme-3M 27.9 µM | K562 31.8 µM | EKVX 35.7 µM | UO-31 30.8 µM | HCT-116 26.9 µM | NCI-H460 48.4 µM | NCI-H23 39 µM | NCI-H522 29.1 µM | ACHN 34.3 µM | SK-MEL-28 20.4 µM | SN12C 37.7 µM | SNB-19 58.9 µM | OVCAR-5 47.1 µM | MDA-MB-435 20.7 µM | DU-145 39.4 µM | SF-539 21.2 µM

O=C1Nc2ccccc2/C1=C\c1c(Cl)n(-c2ccccc2)c2ccccc12
active: MDA-MB-435 0.759 µM
inactive: A498 6.7 µM | UACC-257 9.2 µM | RXF 393 2.14 µM | Malme-3M 2.07 µM | K562 2.48 µM | EKVX 2.33 µM | UO-31 2.4 µM | HCT-116 2.11 µM | NCI-H460 3.18 µM | NCI-H23 2.45 µM | ACHN 5.75 µM | SK-MEL-28 12 µM | SN12C 3.61 µM | SNB-19 2.99 µM | HL-60 2.77 µM | OVCAR-5 3.08 µM | DU-145 2.79 µM | SF-539 1.87 µM

C=C1CC(Cn2ccc(=O)[nH]c2=O)(c2ccc(-c3ccccc3)cc2)OC1=O (stereo not drawn)
inactive: A498 2.86 µM | UACC-257 1.65 µM | Malme-3M 1.46 µM | EKVX 12.2 µM | UO-31 6.64 µM | NCI-H460 11.2 µM | NCI-H23 1.98 µM | ACHN 1.78 µM | SK-MEL-28 2.45 µM | SN12C 4.6 µM | SNB-19 16.9 µM | OVCAR-5 10 µM | MDA-MB-435 1.69 µM | SF-539 2.4 µM
active: K562 0.208 µM | HCT-116 0.377 µM | NCI-H522 0.836 µM | HL-60 0.154 µM | DU-145 1.05 µM

CC1(C)CC[C@]2(C)[C@@H](O)C[C@]3(C)C(=CC[C@@H]4[C@@]5(C)CC[C@H](O)C(C)(C)[C@@H]5CC[C@]43C)[C@@H]2C1
inactive: A498 34.3 µM | UACC-257 49.5 µM | RXF 393 7.24 µM | Malme-3M 29.4 µM | K562 > 100 µM | EKVX 38.8 µM | UO-31 20.4 µM | HCT-116 41.5 µM | NCI-H460 41.2 µM | NCI-H23 29.4 µM | NCI-H522 25.7 µM | ACHN 41.4 µM | SK-MEL-28 > 100 µM | SN12C 56.9 µM | SNB-19 61.5 µM | HL-60 > 100 µM | OVCAR-5 97.3 µM | MDA-MB-435 > 100 µM | DU-145 40.6 µM

O=C(O)C/C=C/CC(=O)O
inactive: A498 > 100 µM | UACC-257 > 100 µM | RXF 393 > 100 µM | Malme-3M > 100 µM | K562 67.1 µM | EKVX > 100 µM | UO-31 > 100 µM | HCT-116 > 100 µM | NCI-H460 > 100 µM | NCI-H23 > 100 µM | NCI-H522 > 100 µM | ACHN > 100 µM | SK-MEL-28 > 100 µM | SN12C 25.7 µM | SNB-19 > 100 µM | HL-60 > 100 µM | OVCAR-5 > 100 µM | MDA-MB-435 > 100 µM | DU-145 > 100 µM

O=C(O)/C=N\N=c1[nH]c2ccccc2[nH]1
inactive: A498 > 100 µM | UACC-257 > 100 µM | Malme-3M > 100 µM | K562 > 100 µM | EKVX > 100 µM | UO-31 > 100 µM | HCT-116 > 100 µM | NCI-H460 > 100 µM | NCI-H23 > 100 µM | NCI-H522 > 100 µM | ACHN > 100 µM | SK-MEL-28 > 100 µM | SN12C > 100 µM | SNB-19 > 100 µM | HL-60 > 100 µM | OVCAR-5 > 100 µM | MDA-MB-435 > 100 µM | DU-145 > 100 µM | SF-539 > 100 µM

CC(=O)O[C@H]1C(=O)[C@@]2(C)[C@H]([C@H](OC(=O)c3ccccc3)[C@]3(O)C[C@H](OC(=O)[C@H](O)[C@@H](NC(=O)c4ccc(N(C)C)cc4)c4ccccc4)C(C)=C1C3(C)C)[C@]1(OC(C)=O)CO[C@@H]1C[C@@H]2O
active: A498 0.0428 µM | RXF 393 0.00887 µM | K562 < 0.005 µM | EKVX 0.112 µM | HCT-116 < 0.005 µM | NCI-H460 < 0.005 µM | NCI-H23 0.00849 µM | NCI-H522 < 0.005 µM | ACHN 0.0718 µM | SN12C < 0.005 µM | SNB-19 < 0.005 µM | HL-60 < 0.005 µM | OVCAR-5 < 0.005 µM | MDA-MB-435 < 0.005 µM | DU-145 < 0.005 µM | SF-539 < 0.005 µM
inactive: UO-31 1.54 µM | SK-MEL-28 > 50 µM

CCn1c(=O)c2c3ccc(OC)cc3[nH]c2c2ccc(OC)cc21
inactive: A498 67.6 µM | UACC-257 71.3 µM | RXF 393 29.3 µM | Malme-3M 61 µM | K562 25.7 µM | EKVX 57.8 µM | UO-31 47.9 µM | HCT-116 30.2 µM | NCI-H23 > 100 µM | NCI-H522 56.1 µM | ACHN 55.5 µM | SK-MEL-28 63.1 µM | SN12C > 100 µM | SNB-19 > 100 µM | OVCAR-5 > 100 µM | MDA-MB-435 > 100 µM | DU-145 43.9 µM | SF-539 52.5 µM

CC(SC(=S)N1CCCCC1)C(=O)Nc1nnc(-c2ccc(Cl)cc2)o1 (stereo not drawn)
active: HL-60 0.575 µM
inactive: A498 22.9 µM | UACC-257 37.5 µM | RXF 393 31.6 µM | Malme-3M 19.1 µM | K562 41.4 µM | UO-31 17.8 µM | HCT-116 17.7 µM | NCI-H460 27.2 µM | NCI-H23 42.1 µM | ACHN 30.5 µM | SK-MEL-28 63.7 µM | SN12C 17.5 µM | SNB-19 31.4 µM | OVCAR-5 51.8 µM | MDA-MB-435 34.1 µM | DU-145 32.1 µM | SF-539 58.7 µM

CCN(CC)CCN1C=CC(C)C(C(=O)O)C1C(N)=O (stereo not drawn)
inactive: A498 > 100 µM | UACC-257 > 100 µM | RXF 393 > 100 µM | K562 > 100 µM | EKVX > 100 µM | UO-31 > 100 µM | HCT-116 > 100 µM | NCI-H460 > 100 µM | NCI-H23 > 100 µM | NCI-H522 > 100 µM | ACHN > 100 µM | SK-MEL-28 > 100 µM | SN12C > 100 µM | SNB-19 > 100 µM | HL-60 > 100 µM | OVCAR-5 > 100 µM | MDA-MB-435 > 100 µM | DU-145 > 100 µM

CCc1nc(N)c2nc(-c3cccs3)oc2n1
inactive: A498 > 10 µM | UACC-257 > 100 µM | RXF 393 > 100 µM | K562 > 100 µM | EKVX 50.1 µM | UO-31 65.6 µM | HCT-116 > 100 µM | NCI-H460 24.3 µM | NCI-H23 > 100 µM | NCI-H522 > 100 µM | ACHN 36.4 µM | SK-MEL-28 > 100 µM | SN12C > 100 µM | SNB-19 9.25 µM | HL-60 > 100 µM | OVCAR-5 > 100 µM | MDA-MB-435 > 100 µM | DU-145 > 100 µM | SF-539 > 100 µM

CC(=O)c1cccc(Nc2nc3ccccc3c3occc23)c1
inactive: A498 9.98 µM | UACC-257 > 100 µM | RXF 393 10.8 µM | Malme-3M 19.9 µM | K562 > 100 µM | EKVX 22 µM | HCT-116 18.2 µM | NCI-H460 20.5 µM | NCI-H23 16.7 µM | ACHN 14.3 µM | SK-MEL-28 27.3 µM | SN12C 13.2 µM | SNB-19 20.2 µM | HL-60 > 100 µM | OVCAR-5 53.6 µM | MDA-MB-435 33.3 µM | DU-145 33.6 µM | SF-539 15.5 µM

CC1(C)CC(=O)C(CC2C(=O)c3ccccc3C2=O)C(=O)C1C(=O)C(=O)Nc1cccc2ccc(O)cc12 (stereo not drawn)
inactive: A498 20.8 µM | UACC-257 > 100 µM | Malme-3M > 100 µM | K562 40.9 µM | EKVX 43.9 µM | UO-31 33.8 µM | HCT-116 > 100 µM | NCI-H460 > 100 µM | NCI-H23 67.1 µM | NCI-H522 > 100 µM | ACHN > 100 µM | SK-MEL-28 > 100 µM | SN12C > 100 µM | SNB-19 > 100 µM | HL-60 > 100 µM | OVCAR-5 > 100 µM | MDA-MB-435 > 100 µM | DU-145 > 100 µM | SF-539 > 100 µM

CC(=O)N[C@H]1CCCC[C@@H]1OC(C)=O
inactive: A498 > 100 µM | UACC-257 > 100 µM | RXF 393 > 100 µM | Malme-3M > 100 µM | K562 > 100 µM | EKVX > 100 µM | HCT-116 > 100 µM | NCI-H460 > 100 µM | NCI-H23 > 100 µM | NCI-H522 > 100 µM | ACHN > 100 µM | SK-MEL-28 > 100 µM | SN12C > 100 µM | HL-60 > 100 µM | OVCAR-5 > 100 µM | MDA-MB-435 > 100 µM | DU-145 > 100 µM

Cc1ccc2c3c(cnc2n1)C(=O)OCCN3C
inactive: A498 > 100 µM | UACC-257 > 100 µM | RXF 393 > 100 µM | K562 > 100 µM | EKVX > 100 µM | UO-31 > 100 µM | HCT-116 > 100 µM | NCI-H460 > 100 µM | NCI-H23 > 100 µM | NCI-H522 > 100 µM | ACHN > 100 µM | SK-MEL-28 > 100 µM | SN12C > 100 µM | SNB-19 > 100 µM | HL-60 > 100 µM | OVCAR-5 > 100 µM | MDA-MB-435 > 100 µM | DU-145 > 100 µM | SF-539 > 100 µM
